“And” between values parts separate entries of the source, which are not always exact repeats. Identical values can stand only once.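 Where inhibition never reached the appropriate level, the endpoint shown equals the highest concentration tested. Otherwise, values were interpolated linearly from a five-concentration, 48-hour dose response in 96-well plates. GI50: concentration for 50% inhibition of growth. TGI marks complete inhibition of growth.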
Legend:
Test in all cases: NCI anticancer screen, dose series, 48 h
CAKI-1 renal = system: CAKI-1 renal
EKVX NSCLC = system: EKVX NSCLC
HL-60(TB) leukemia = system: HL-60(TB) leukemia
IGROV1 ovarian = system: IGROV1 ovarian
K-562 leukemia = system: K-562 leukemia
LOX IMVI melanoma = system: LOX IMVI melanoma
MDA-MB-435 = system: MDA-MB-435
NCI-H23 lung = system: NCI-H23 lung
NCI-H522 lung = system: NCI-H522 lung
SW-620 colon = system: SW-620 colon

| Compound | GI50 (CAKI-1 renal) | TGI (CAKI-1 renal) | GI50 (EKVX NSCLC) | TGI (EKVX NSCLC) | GI50 (HL-60(TB) leukemia) | TGI (HL-60(TB) leukemia) | GI50 (IGROV1 ovarian) | TGI (IGROV1 ovarian) | GI50 (K-562 leukemia) | TGI (K-562 leukemia) | GI50 (LOX IMVI melanoma) | TGI (LOX IMVI melanoma) | GI50 (MDA-MB-435) | TGI (MDA-MB-435) | GI50 (NCI-H23 lung) | TGI (NCI-H23 lung) | GI50 (NCI-H522 lung) | TGI (NCI-H522 lung) | GI50 (SW-620 colon) | TGI (SW-620 colon) |
| --- | --- | --- | --- | --- | --- | --- | --- | --- | --- | --- | --- | --- | --- | --- | --- | --- | --- | --- | --- | --- |
| CC1=CC(=O)N(c2cccc3c(N4C(=O)C=C(C)C4=O)cccc23)C1=O | 3.61 µM | 13.8 µM | 15.6 µM | 33.5 µM | 2.38 µM | 8.8 µM | 3.55 µM | 16.2 µM | 1.9 µM | 9.45 µM | 1.8 µM | 5.56 µM | 3.13 µM | > 37.1 µM | 15.3 µM | 39.7 µM | 0.693 µM | 1.79 µM | 0.99 µM | 2.93 µM |
| COc1ccc(Oc2nc3cc(N)cc(N)c3nc2-c2ccccc2)cc1 | 79.6 µM | > 100 µM | 24.7 µM | 63.1 µM | 15.4 µM | > 100 µM | 24.9 µM | > 100 µM | 26.1 µM | > 100 µM | 34.7 µM | > 100 µM | 40.6 µM | > 100 µM | 25.2 µM | > 100 µM | 31.4 µM | > 100 µM | 88.2 µM | > 100 µM |
| Cc1sc(C(=O)c2cncnc2N[C@@H]2C[C@H](COS(N)(=O)=O)[C@@H](O)C2)cc1[C@@H]1NCCc2ccc(Cl)cc21 | 1.63 µM | 25.5 µM | 8.88 µM | 25.7 µM | 0.294 µM | 13.2 µM | 11 µM | 25.7 µM | 4.19 µM | 34.2 µM | 0.0959 µM | 15.6 µM | 0.156 µM | 14.8 µM | 11.8 µM | 27 µM | 3.49 µM | 25.9 µM | 7.63 µM | 24.5 µM |
| c1ccc(-c2[nH]ncc2-c2ccnc(-c3ccc(OCCN4CCOCC4)cc3)c2)nc1 | > 25 µM | > 25 µM | > 25 µM | > 25 µM | > 25 µM | > 25 µM | > 25 µM | > 25 µM | 13.2 µM | > 25 µM | > 25 µM | > 25 µM | > 25 µM | > 25 µM | > 25 µM | > 25 µM | > 25 µM | > 25 µM | > 25 µM | > 25 µM |
| CNC(=O)ON(C(C)=O)C(=O)NC | – | 146 µM | 108 µM | 241 µM | 14.2 µM and 8.38 µM | 37.7 µM and 29.5 µM | – | 241 µM | 51.8 µM and 26.6 µM | 241 µM | 65.2 µM | 119 µM | – | 50.2 µM | – | 156 µM | – | 73.5 µM | > 94 µM | 224 µM |
| Cc1ccc(/C=N/NC(=O)c2ccccc2Oc2ccccc2)o1 | 34.1 µM | > 100 µM | 38.8 µM | > 100 µM | 22.8 µM | > 74.1 µM | 59.5 µM | > 100 µM | 33.8 µM | > 100 µM | > 67.4 µM | > 100 µM | 34.6 µM | > 100 µM | 39.2 µM | > 100 µM | 25.8 µM | > 100 µM | > 77.6 µM | > 100 µM |
| CN1CCN(CCCNC(=O)c2c3c(n4ccccc24)C(=O)c2ncccc2C3=O)CC1 | 6.76 µM | 46.3 µM | 1.61 µM | 5.94 µM | 2.23 µM | 5.76 µM | 1.28 µM | 5.06 µM | 1.39 µM | > 32.4 µM | 0.715 µM | 3.36 µM | 0.295 µM | 0.619 µM | 0.674 µM | 3.08 µM | 1.01 µM | 3.86 µM | 0.578 µM | 9.49 µM |
| NC(=O)c1c(NC(=O)c2cccs2)sc2c1CCC(=O)C2 | 2.65 µM | > 100 µM | 2.54 µM | 87.1 µM | 2.45 µM | 7.13 µM | 1.98 µM | 36.7 µM | 0.736 µM | > 100 µM | 2.44 µM | 14.2 µM | 2.95 µM | 10.6 µM | 1.83 µM | 7.34 µM | 0.892 µM | 7.92 µM | 0.809 µM | 16.8 µM |
| CCN1CCN(c2nc(C)cc(NCc3cc(Nc4ccnc5cc(Cl)ccc45)ccc3F)n2)CC1 | 1.83 µM | 4.72 µM | 3.03 µM | 14 µM | 2.22 µM | 4.55 µM | 2.2 µM | 7.27 µM | 0.663 µM | 4.95 µM | 1.02 µM | 2.34 µM | 1.5 µM | 2.91 µM | 2.62 µM | 13 µM | 3.02 µM | 7.77 µM | 1.78 µM | 4.81 µM |
| O/N=C(\CC(O)(C(F)(F)F)C(F)(F)F)c1cccs1 | – | > 10 µM | – | > 10 µM | – | > 10 µM | – | > 10 µM | – | > 10 µM | – | > 10 µM | – | > 10 µM | – | > 10 µM | – | > 10 µM | – | > 10 µM |
| COc1ccc2c(c1)C(=Nc1ccc(F)c(Cl)c1)c1c-2c(Nc2ccc(F)c(Cl)c2)nc2ccccc12 | > 65.8 µM | > 100 µM | 89.2 µM | > 100 µM | 14.8 µM | 33.1 µM | 30.1 µM | > 100 µM | 4.19 µM | 37 µM | 51.8 µM | > 100 µM | > 100 µM | > 100 µM | 19.9 µM | 58 µM | 44.3 µM | > 100 µM | > 100 µM | > 100 µM |
| Cc1nc2sc(C(=O)Nc3cccc(Br)c3C)c(N)c2cc1C(O)c1ccccc1 (stereo not given) | 0.0601 µM | 6.63 µM | 0.283 µM | 43.8 µM | 0.03 µM | 0.0876 µM | 0.0487 µM | 13.2 µM | 0.0354 µM | > 100 µM | 0.0496 µM | 6.93 µM | 0.0198 µM | 0.0552 µM | 0.0616 µM | 15 µM | 0.0286 µM | 2.55 µM | 0.0382 µM | 19.3 µM |
| CN1CCC2(CC1)N=C(SCC(=O)Nc1cnc3ccccc3c1)C(c1ccc(Br)cc1)=N2 | 1.64 µM | 3.94 µM | 2.51 µM | 10.2 µM | 1.61 µM | 3.75 µM | 1.77 µM | 4.19 µM | 1.89 µM | 5.05 µM | 1.66 µM | 3.11 µM | 1.72 µM | 3.21 µM | 4.3 µM | 16.3 µM | 1.91 µM | 3.82 µM | 1.88 µM | 3.65 µM |
| CC(C)(C)[Si](C)(C)OCC1OC(n2cnc3c(=O)[nH]cnc32)CC1O (stereo not given) | – | > 100 µM | – | > 100 µM | – | > 100 µM | – | > 100 µM | – | > 100 µM | – | > 100 µM | – | > 100 µM | – | > 100 µM | – | > 100 µM | – | > 100 µM |
| N#C/C(=C\c1cc(O)c(O)c(O)c1)C(N)=O | – | > 100 µM | – | > 100 µM | – | > 81.5 µM | – | > 100 µM | – | > 100 µM | – | > 65.6 µM | – | > 100 µM | – | > 100 µM | – | > 100 µM | – | > 100 µM |
| CC1(C)C(N2CCOCC2)CS1(=O)=O (stereo not given) | – | > 10 µM | – | > 10 µM | – | > 10 µM | – | > 10 µM | – | > 10 µM | – | > 10 µM | – | > 10 µM | – | > 10 µM | – | > 10 µM | – | > 10 µM |
| C=CCn1c2ccccc2c2c3c(c4c5ccccc5n(CC=C)c4c21)C(=O)N(O)C3=O | 1.69 µM | 3.45 µM | 6.34 µM | 30.6 µM | 2.09 µM | 4.31 µM | 1.4 µM | 3.8 µM | 3.89 µM | 50 µM | 0.967 µM | 2.43 µM | 4.45 µM | 29.6 µM | 3.03 µM | 22.2 µM | 1.09 µM | 2.56 µM | 4.42 µM | 29.5 µM |
| Cc1cc(O)ccc1C1=NN(c2ccc(S(N)(=O)=O)cc2)C(=O)CC1 | 4.08 µM and 4.93 µM | 50 µM and 82.1 µM | 3.87 µM and 19.2 µM | 50 µM and > 100 µM | 1.85 µM and 5 µM | 50 µM and > 100 µM | 6.75 µM and 9.07 µM | 50 µM and > 100 µM | 3 µM and 2.68 µM | 50 µM and > 100 µM | 10.8 µM and 29.7 µM | 50 µM and > 100 µM | 0.994 µM and 1.73 µM | 4.35 µM and 5.48 µM | 14.5 µM and 22.5 µM | 50 µM and > 100 µM | 1.12 µM and 2.48 µM | 33.5 µM and > 100 µM | 2.34 µM and 8.64 µM | 50 µM and > 100 µM |
| C/C=C(\N=C=S)C(=O)OC1C(COC(C)=O)OC([C@]2(O)CC(=O)C(=N)C(C(=O)O)=C2O)C(O)C1OC1CC(OC)C(O)([C@@H](C)OC(=O)[C@@H](C)CC)C(C)O1 (stereo not given in full) | – | 35 µM | – | 30.3 µM | – | 5.34 µM | – | 36 µM | – | 14.6 µM | – | 17.2 µM | – | 35.7 µM | – | 23.9 µM | – | 5.32 µM | – | 8.33 µM |
| O=C(/C=C/c1ccccc1)c1cccc2ccccc12 | 2.11 µM | 6.62 µM | 2.75 µM | 12.6 µM | 1.49 µM | 5.21 µM | 3.4 µM | 10.9 µM | 1.61 µM | 5.26 µM | 1.6 µM | 4.69 µM | 2.64 µM | 14.7 µM | 3.19 µM | 11.9 µM | 2.75 µM | 8.41 µM | 2.42 µM | 6 µM |
| Brc1ccccc2cc(-c3ccccc3)nc1-2 | – | 44.7 µM | – | 40.4 µM | – | 35.8 µM | – | 26.5 µM | – | > 61.2 µM | – | 21.4 µM | – | > 61 µM | – | 21.2 µM | – | 21.7 µM | – | > 36.2 µM |

From PubChem BioAssay (NCI)
